Where two headings read alike, the source gives them in different places. Blank lines part the entries; values can stand above or below the substance they belong to.
Legend:
[1] = 65Zn2+ binding to immobilized peptide (dot-blot, Scatchard competition analysis)
Experimental: ^65Zn^2+ Binding Studies—Dissolved peptides (1.2 nMol, unless other wise stated) were dot-blotted onto polyvinylidene difluoride membrane (0.2-μm pore size; Pierce Chemical Co.), washed twice with chelating buffer (200 μl×100 mM NaCl, 20 mM Tris-HCl, 1 mM EDTA, pH 7.4), then five times with blocking buffer (200 μl×100 mM NaCl, 20 mM Tris-HCl, 1 mM MnCl2, pH 7.4), and then incubated (60 min, 20° C.) with ^65Zn (unless otherwise stated 130,000 cpm, […] ^65ZnCl2 in 200 μl of blocking buffer±competing metal ion chloride). The dot-blot was then washed with blocking buffer (5×200 μl), the dot excised, placed in a test tube, and assayed by γ-counting (11% efficiency). The equilibration volume for stoichiometry estimates was regarded as 6×200 μl. The 214 nm UV absorbance of the unbound flow-through was assayed to determine the total amount of peptide remaining bound onto the membrane. […] To alter the pH, the ^65Zn incubation was carried out in the presence of 100 mM buffer: MOPS (pH 6.5-7.0), MES (pH 5.0-6.0), acetate (pH 3.5-4.5). The dot-blot apparatus was washed with detergent and EDTA (50 mM) then rinsed and siliconized between use.
Aliquots of Aβ were incubated (60 min) with ^65Zn^2+ in the presence of varying concentrations of unlabeled Zn^2+ (0.01-50 μM total). Values shown are means±S.D., n≧3. […] (FIG. 1b) depicts specificity of the Zn^2+ binding site for various metals. Aβ was incubated (60 min) with ^65 Zn^2+ (157 nM, 138,000 cpm) and competing unlabeled metal ions (50 μM total). […] Percent binding of total counts ^65Zn^2+/min added is corrected for the amounts (in nanomoles) of peptides adhering to the membrane. […] 157 nM ^65Zn (138,000 cpm) is used in this experiment to probe immobilized peptide (1.6 nmol).

[2] = Aβ incubation with column components, UV absorption before and after; assay type: physicochemical
Experimental: To determine the part of the column onto which Aβ was precipitating, Aβ solutions were incubated with various column components and assayed by UV absorption before and after incubation. Replicating the chromatography experimental conditions, Aβ (100 μM in equilibration buffer) was incubated for 1 h in plastic reaction vessels with or without the presence of Sephadex.

[3] = Aβ binding to kaolin (aluminum silicate); assay type: physicochemical
Experimental: Aβ Binding to Kaolin (Aluminum Silicate)—Kaolin suspension was prepared in high performance liquid chromatography water (Fisher), defined, and adjusted to 50% (v/v). Aβ (40 μg) was incubated in siliconized reaction vessels with either kaolin or Sephadex G50 SF (10 μl×50% (v/v)) in Cu^2+, Zn^2+, or EDTA (100 μl in TBS, 5 min, room temperature). The suspension was then pelleted (1500×g, 3 min) and the supernatant removed and diluted 20-fold with water to bring the UV absorbance readings into the linear range. Samples were assayed at 214 nm before and after incubation with kaolin or Sephadex.
(FIG. 3a) depicts concentration (by 214 nm absorbance) of Aβ remaining in supernatant after incubation with 10 mg of G50 Sephadex. (FIG. 3b) depicts concentration (by 214 nm absorbance) of Aβ remaining in supernatant after incubation with 10 mg of kaolin, expressed as percent of the starting absorbance.

trypsin = assay: Tryptic digestion of Aβ after incubation with Zn2+; assay type: biochemical; settings: increasing zinc concentrations
Experimental: Tryptic Digestion of Aβ-Aβ1-40 (13.9 μg) was incubated with Zn^2+ ([…] in blocking buffer, 1 h, 37° C.) and then digested with trypsin (12 ng, 3 h, 37° C.). The reaction was stopped by adding SDS sample buffer containing phenylmethylsulfonyl fluoride (1 mM), boiling the samples (5 min), and applying the samples to Tris/Tricine gel electrophoresis and transfer. The blot was washed with EDTA, Coomassie-stained, incubated with ^65Zn^2+, individual bands were excised, assayed for ^65Zn^2+ binding, and N-terminal sequenced to confirm the identity of the digestion products. The effects of Zn^2+ (up to 100 μM in TBS) on the activity of trypsin, itself, were assayed by assay of Z-Arg-amido-4-methylcoumarin (Sigma) fluorescent cleavage product and determined to be negligible.
(FIG. 4a) depicts a blot of tryptic digests of Aβ (13.9 μg) after incubation with increasing concentrations of zinc (lane labels, in micromolar), stained by Coomassie Blue. […] The migration of the low molecular size markers (STD) are indicated (in kilodaltons) on the right. (FIG. 4b) depicts ^65Zn^2+ binding to Aβ tryptic digestion products. The blot in 4a was incubated with ^65Zn^2+, the visible bands excised, and the bound counts for each band determined.

[4] = Zinc-induced tinctorial amyloid formation (Congo Red, polarized light); assay type: physicochemical
Experimental: FIGS. 8a and 8b are photographs showing zinc-induced tinctorial amyloid formation. […] The particle diameter is 40μ. […] The experiment was repeated with EDTA (50 μM) substituted for Zn^2+ and yielded no visible material.
The particle diameter is 40μ. […] The experiment was repeated with EDTA (50 μM) substituted for Zn^2+ and yielded no visible material.

[5] = not given; remark: listed apart in the source
[6] = 65Zn2+ binding to immobilized peptide (dot-blot, Scatchard competition analysis); settings: 1 min
[7] = 20 μM in PBS, cited from earlier work
[8] = centrifugation studies; cited from earlier work
[9] = neutral pH; cited from earlier work

time at which ^65Zn^2+ binding plateaued [1]: 1 h | ^65Zn^2+ binding at lower pH ([1]; pH 6.0): 30 % of Bmax | ^65Zn^2+ binding at 1 min [6]: 60 % Bmax
Substance: Aβ1-40: synthetic peptide representing secreted human Aβ1-40, 4.3 kDa, main component of Alzheimer cerebral amyloid
binding to Sephadex ([2]; Aβ 100 μM, 1 h): < 1% | loss to siliconized plastic ([2]; Aβ 100 μM, 1 h): < 1% | adsorption in borosilicate glass test tubes ([2]; without zinc): 20% | adsorption in borosilicate glass test tubes ([2]; zinc 25 μM): 35% | reversibility of binding to kaolin ([3]; 10 mM EDTA): not reversible | precipitation of the peptide by kaolin ([3]; Aβ 0.4 mg/ml, kaolin 5% v/v, 5 min, room temperature): up to 87% | effect of zinc on rate of tryptic digestion of the peptide (trypsin): is inhibited by the presence of zinc | Zn^2+ concentration inducing amyloid by tinctorial criteria ([4]; Congo Red): 3 µM | particle diameter of zinc-induced precipitate ([4]; peptide 25 μM, Zn^2+ 25 μM, 30 minutes, 37° C.): 40 μ | >0.2μ particle assembly following incubation with EDTA (EDTA): 10-20% | near-instantaneous aggregation into >0.2μ particles (EDTA buffer, peptide 1.6 μM): 20% | peptide aggregated into >0.2μ particles (EDTA, higher peptide concentrations): ≈ 15% | peptide aggregated into >0.2μ particles (EDTA, peptide 0.8 μM): no detectable aggregation | peptide aggregated into >0.2μ particles (Zn^2+ 25 μM, 30 minutes, various peptide concentrations): up to 80% | peptide aggregated into >0.2μ particles (Zn^2+ 25 μM, peptide 0.8 μM): > 70% | particle assembly rate of second phase (Zn^2+ 25 μM, peptide 1.6 μM): 3.2 nM/min | time to steady state of the second phase (Zn^2+ 25 μM, peptide 1.6 μM): ≤ 2 min | half-maximal assembly rate of initial phase (Zn^2+ 25 μM, peptide 1.6 μM, pH 7.4): ≈ 0.4 μM/min | time until available peptide is exhausted (at second-phase rate): within five hours | peptide that would aggregate into >0.2μ particles, extrapolated (curve of FIG. 6A extrapolated to 0.6 nM peptide, Zn^2+ 25 μM): 25% | peptide recovered when retained aggregates are washed with EDTA ([5]; >0.65 aggregates, EDTA 50 μM): 22% | proportion of particles >0.1μ ([5]; EDTA, peptide 1.6 μM): 47% | proportion of particles >0.22μ ([5]; EDTA, peptide 1.6 μM): 40% | proportion of particles >0.65μ ([5]; EDTA, peptide 1.6 μM): 32% | increase of proportion of >0.1μ particles following incubation with Zn^2+ ([5]; Zn^2+ 25 μM vs EDTA): 50% | increase of proportion of >0.22μ particles following incubation with Zn^2+ ([5]; Zn^2+ 25 μM vs EDTA): 55% | proportion of particles >0.65μ ([5]; Zn^2+ 25 μM, peptide 1.6 μM): 82% | additional ≦0.22μ peptide resolubilized by EDTA treatment ([5]; compared with >0.65 aggregates): 7% | time stable in solution ([7]; pH 7.4): 10 days | time to half-maximal aggregation ([7]; seeded with Aβ1-42 (2 μM)): 4 to 5 days

Substance: ^125I-human Aβ1-40: human Aβ1-40 iodinated on the tyrosine residue at position 10, tracer
Zn^2+ concentration required to precipitate [8]: 1 mM

Substance: insulin: insulin, literature comparison for zinc binding
stoichiometric ratio Zn^2+:insulin in excess of which the peptide precipitates [9]: > 0.33

Reference: patent publication US6890727B2, “Diagnostic assay for Alzheimer's disease: assessment of Aβ abnormalities” (The General Hospital Corporation, priority 1994, dated 2005)
